US9074188B2, “Cardiomyocyte- and/or cardiac progenitor cell-proliferating agent and method for proliferating cardiomyocytes and/or cardiac progenitor cells” (KYOTO UNIVERSITY, priority 2010, dated 2015)

Legend:
[1] = tested on: Flkd6 cardiomyocytes whose differentiation was induced from EMG-7; assay: Influence on cell cycle: cells positive for pH3 (M phase) or EdU (S phase) in Flkd6; assay type: cell-based, mouse; details: Flkd6 cultured with agent; FIG. 2
Description: DMSO is a control wherein only a solvent was added.
In order to examine the influence on the cell cycle, the number of cells positive for phosphorylation of histone 3 (pH3) (M phase) or ethynyl […] (EdU) (S phase) was assayed (FIG. 2a-d).

[2] = tested on: Flkd6 cardiomyocytes whose differentiation was induced from mouse ES cells EMG-7; assay: Proliferation of mouse ES cell (EMG-7)-derived cardiomyocytes Flkd6: number of alpha-MHC-GFP-positive cells; assay type: cell-based; details: for number of alpha-MHC-GFP-positive cells after addition (screening): Flkd6 purified by FACS, cultured for 5 days, 1 μM BIO, 5 μM SU1498, 5 μM KN93, FIG. 1a; for number of alpha-MHC-GFP-positive cells by FACS: cultured for 2 days (Flkd6+2) or 5 days (Flkd6+5), especially Flkd6+5, FIG. 1b; for cardiomyocyte-proliferation-promoting effect (number of alpha-MHC-GFP-positive cells per well): Flkd6+5, FIGS. 3a, 3b, 3d
Description: The human iPS cells (253G1) were provided by Prof. […] 253G1 cells are available from RIKEN BRC.
Thereafter, Flk1-positive cells were separated using FACS, and the separated cells were cultured on OP9 cells using a 3 μg/ml Cyclosporine A-containing medium (alpha MEM supplemented with 10% FBS) for 6 days, to induce differentiation into cardiomyocytes. These cells are hereinafter referred to as Flkd6.
The above-mentioned Flkd6, obtained by differentiation of EMG-7, was subjected to purification by FACS using alpha-MHC-GFP as an index. […] These three agents were added to Flkd6, and the cells were then cultured for 2 days (Flkd6+2) or 5 days (Flkd6+5), followed by measuring the number of alpha-MHC-GFP-positive cells by FACS.

| Structure (SMILES) | influence on the cell cycle: pH3 (M phase) or EdU (S phase) positive cells [1] | number of alpha-MHC-GFP-positive cells after addition (screening) [2] | number of alpha-MHC-GFP-positive cells by FACS [2] | cardiomyocyte-proliferation-promoting effect (number of alpha-MHC-GFP-positive cells per well) [2] |
| --- | --- | --- | --- | --- |
| O=C1Nc2cc(Br)ccc2/C1=C1/Nc2ccccc2/C1=N\O [BIO, 6-bromoindirubin 3′-oxime] | promotes the S phase and the M phase from the early stage after its addition | significantly increased the number of alpha-MHC-GFP-positive cells | significant increase in the number of the positive cells |  |
| Cc1c[nH]c(-c2cnc(NCCNc3ccc(C#N)cn3)nc2-c2ccc(Cl)cc2Cl)n1 [CHIR99021] |  |  |  | also have similar effects |
| CN([C@@H](Cc1ccc(OS(=O)(=O)c2cccc3cnccc23)cc1)C(=O)N1CCN(c2ccccc2)CC1)S(=O)(=O)c1cccc2cnccc12 [KN62, 1-[N,O-bis(5-isoquinolinesulfonyl)-N-methyl-L-tyrosyl]-4-phenylpiperazine] |  |  |  | also have similar effects |
| COc1ccc(S(=O)(=O)N(CCO)c2ccccc2CN(C)CC=Cc2ccc(Cl)cc2)cc1 [KN93] |  | significantly increased the number of alpha-MHC-GFP-positive cells | significant increase in the number of the positive cells |  |
| CC(C)c1cc(/C=C(\C#N)C(=O)NCCCc2ccccc2)cc(C(C)C)c1O [SU1498, (E)-3-(3,5-diisopropyl-4-hydroxyphenyl)-2-[(3-phenyl-n-propyl)aminocarbonyl]acrylonitrile] |  | significantly increased the number of alpha-MHC-GFP-positive cells | significant increase in the number of the positive cells |  |
| Cc1ccc(NC(=O)c2cccc(N(C)C)c2)cc1NC(=O)c1ccc(O)cc1 [ZM336372, 3-(dimethylamino)-N-[3-[(4-hydroxybenzoyl)amino]-4-methylphenyl]benzamide] |  |  |  | has a cardiomyocyte-proliferation-promoting effect |
